The source made the active and inactive calls. How the calls were made is not given here.
Test system: CCRIS mutagenicity, Ames/micronucleus/aberration tests
Test: CCRIS mutagenicity studies

Nc1ccc(-c2ccccc2)cc1
mutagenic call (Test System: AMES SALMONELLA TYPHIMURIUM, Strain/Indicator: TA100, Metabolic Activation: TOBACCO CELL-FREE TXIMX, Method: PREINCUBATION): active; positive | mutagenic call (Test System: AMES SALMONELLA TYPHIMURIUM, Strain/Indicator: TA1535, Metabolic Activation: NONE, Method: STANDARD PLATE): inactive; negative | mutagenic call (Test System: AMES SALMONELLA TYPHIMURIUM, Strain/Indicator: TA1537, Metabolic Activation: RAT, LIVER, S-9, AROCLOR 1254, Method: STANDARD PLATE): active; positive | mutagenic call (Test System: AMES SALMONELLA TYPHIMURIUM, Strain/Indicator: TA1538, Metabolic Activation: GUINEA PIG, LIVER, INTACT HEPATOCYTES, Method: PREINCUBATION): active; positive | mutagenic call (Test System: AMES SALMONELLA TYPHIMURIUM, Strain/Indicator: TA1538, Metabolic Activation: GUINEA PIG, LIVER, S-9, ACETYL COENZYME A, Method: PREINCUBATION): active; positive | mutagenic call (Test System: AMES SALMONELLA TYPHIMURIUM, Strain/Indicator: TA1538, Metabolic Activation: GUINEA PIG, LIVER, S-9, Method: PREINCUBATION): active; positive | mutagenic call (Test System: AMES SALMONELLA TYPHIMURIUM, Strain/Indicator: TA1538, Metabolic Activation: HAMSTER, LIVER, INTACT HEPATOCYTES, Method: PREINCUBATION): inactive; negative | mutagenic call (Test System: AMES SALMONELLA TYPHIMURIUM, Strain/Indicator: TA1538, Metabolic Activation: HAMSTER, LIVER, S-9, ACETYL COENZYME A, Method: PREINCUBATION): active; positive | mutagenic call (Test System: AMES SALMONELLA TYPHIMURIUM, Strain/Indicator: TA1538, Metabolic Activation: HAMSTER, LIVER, S-9, Method: PREINCUBATION): active; positive | mutagenic call (Test System: AMES SALMONELLA TYPHIMURIUM, Strain/Indicator: TA1538, Metabolic Activation: RAT, LIVER, INTACT HEPATOCYTES, Method: PREINCUBATION): active; positive | mutagenic call (Test System: AMES SALMONELLA TYPHIMURIUM, Strain/Indicator: TA1538, Metabolic Activation: RAT, LIVER, S-9, ACETYL COENZYME A, Method: PREINCUBATION): active; positive | mutagenic call (Test System: AMES SALMONELLA TYPHIMURIUM, Strain/Indicator: TA1538, Metabolic Activation: RAT, LIVER, S-9, AROCLOR 1254, Method: STANDARD PLATE): active; positive | mutagenic call (Test System: AMES SALMONELLA TYPHIMURIUM, Strain/Indicator: TA1538, Metabolic Activation: RAT, LIVER, S-9, KC500 OR PHENOBARBITAL, Method: LIQUID SUSPENSION): active; positive | mutagenic call (Test System: AMES SALMONELLA TYPHIMURIUM, Strain/Indicator: TA1538, Metabolic Activation: RAT, LIVER, S-9, PHENOBARBITAL, Method: STANDARD PLATE): active; positive | mutagenic call (Test System: AMES SALMONELLA TYPHIMURIUM, Strain/Indicator: TA1538, Metabolic Activation: RAT, LIVER, S-9, Method: PREINCUBATION): active; positive | mutagenic call (Test System: AMES SALMONELLA TYPHIMURIUM, Strain/Indicator: YG1021, Metabolic Activation: TOBACCO CELL-FREE TXIMX, Method: PREINCUBATION): active; positive | mutagenic call (Test System: AMES SALMONELLA TYPHIMURIUM, Strain/Indicator: YG1021, Metabolic Activation: TOBACCO TX1 CELLS, Method: PREINCUBATION): active; positive | mutagenic call (Test System: AMES SALMONELLA TYPHIMURIUM, Strain/Indicator: YG1024, Metabolic Activation: HUMAN, UROEPITHELIAL CELL, MICROSOMES, Method: PREINCUBATION): active; positive | mutagenic call (Test System: AMES SALMONELLA TYPHIMURIUM, Strain/Indicator: YG1024, Metabolic Activation: PLANT CELLS, Method: PREINCUBATION): active; positive | mutagenic call (Test System: AMES SALMONELLA TYPHIMURIUM, Strain/Indicator: YG1024, Metabolic Activation: TOBACCO CELL-FREE EXTRACT, Method: PREINCUBATION): active; positive | mutagenic call (Test System: AMES SALMONELLA TYPHIMURIUM, Strain/Indicator: YG1024, Metabolic Activation: TOBACCO CELL-FREE TXIMX, Method: PREINCUBATION): active; positive | mutagenic call (Test System: AMES SALMONELLA TYPHIMURIUM, Strain/Indicator: YG1024, Metabolic Activation: TOBACCO TX1 CELLS, Method: PREINCUBATION): active; positive | mutagenic call (Test System: AMES SALMONELLA TYPHIMURIUM, Strain/Indicator: YG1026, Metabolic Activation: TOBACCO CELL-FREE TXIMX, Method: PREINCUBATION): active; positive | mutagenic call (Test System: AMES SALMONELLA TYPHIMURIUM, Strain/Indicator: YG1026, Metabolic Activation: TOBACCO TX1 CELLS, Method: PREINCUBATION): inactive; negative | mutagenic call (Test System: AMES SALMONELLA TYPHIMURIUM, Strain/Indicator: YG1029, Metabolic Activation: MOUSE LIVER S-9, AROCLOR 1254, 10%, Method: PREINCUBATION): active; positive | mutagenic call (Test System: AMES SALMONELLA TYPHIMURIUM, Strain/Indicator: YG1029, Metabolic Activation: RAT LIVER S-9, AROCLOR 1254, 10%, Method: PREINCUBATION): active; positive | mutagenic call (Test System: AMES SALMONELLA TYPHIMURIUM, Strain/Indicator: YG1029, Metabolic Activation: TOBACCO CELL-FREE EXTRACT, Method: PREINCUBATION): active; positive | mutagenic call (Test System: AMES SALMONELLA TYPHIMURIUM, Strain/Indicator: YG1029, Metabolic Activation: TOBACCO CELL-FREE TXIMX, Method: PREINCUBATION): active; positive | mutagenic call (Test System: AMES SALMONELLA TYPHIMURIUM, Strain/Indicator: YG1029, Metabolic Activation: TOBACCO TX1 CELLS, Method: PREINCUBATION): active; positive | mutagenic call (Test System: Ames Salmonella Typhimurium, Strain/Indicator: TA102, Metabolic Activation: None, Method: Preincubation): inactive; negative | mutagenic call (Test System: Ames Salmonella typhimurium, Strain/Indicator: TA102, Metabolic Activation: Rat, liver, S-9, Aroclor 1254, 4%, Method: Preincubation): active; positive | mutagenic call (Test System: CHINESE HAMSTER OVARY, Strain/Indicator: CHO-K1-BH4 (HGPRT), Metabolic Activation: RAT, LIVER, S-9, AROCLOR, Method: SUSPENSION/PLATE): active; positive | mutagenic call (Test System: E. COLI, Strain/Indicator: WP2 UVRA(P), Metabolic Activation: NONE, Method: STANDARD PLATE): inactive; negative | mutagenic call (Test System: E. COLI, Strain/Indicator: WP2 UVRA, Metabolic Activation: NONE, Method: FLUCTUATION TEST): inactive; negative | mutagenic call (Test System: UDS RODENT HEPATOCYTES, Strain/Indicator: THY INCORP (NON-S-PHASE), Method: AUTORADIOGRAPHY): active; positive

— PubChem BioAssay AID1259407 (Chemical Carcinogenesis Research Information System (CCRIS), 2018)
